Measured values reported in patent publication US20250262194A1, “PHARMACEUTICAL FOR TREATING OR PREVENTING CANCER” (CHUGAI SEIYAKU KABUSHIKI KAISHA, priority 2022, published 2025).
Where a name gives a salt, the structure may show the parent alone.

Experiments:
[1] = tested on: KRAS mutation-positive human cancer cell line NCI-H1373; experiment: In vivo antitumor activity, NCI-H1373-transplanted models (Example 5); set-up: species or system nude mice; settings: sodium salt of compound 1 0.25 mg/kg orally once a day and/or TNO155 10 mg/kg orally twice a day, 30 days
Experimental: (§1) Use in combination of the sodium salt of the compound 1 and TNO155 was evaluated for its in vivo antitumor activity using nude mice in which any of KRAS mutation-positive human cancer cell lines NCI-H1373, NCI-H358 and NCI-H441 (all, ATCC) was transplanted. The NCI-H1373 cells, the NCI-H358 cells, and the NCI-H441 cells were subcutaneously transplanted at 5×10^6, 1×10^7, and 5×10^6, respectively, per mouse to the mice. The mice were grouped (n=5) when a tumor volume reached approximately 150 to 300 mm^3.
(§2) The NCI-H1373-, NCI-H358- or NCI-H441-transplanted models received the single-agent administration or combined administration of the sodium salt of the compound 1 and TNO155. The sodium salt of the compound 1 was dissolved in solvent A for administration. TNO155 was diluted with 0.5% Tween 80 and 0.5% methyl cellulose prepared with injectable distilled water (solvent D) for administration.
(§3) Administration to the NCI-H1373-transplanted models was performed as described below. The sodium salt of the compound 1 and the solvent D were administered at 0.25 mg/kg and 10 ml/kg, respectively, to the single-agent administration group of the sodium salt of the compound 1. […]
(§4) The tumor volumes of the mice were calculated according to the expression (4). […]

[2] = tested on: KRAS mutation-positive human cancer cell line NCI-H358; experiment: In vivo antitumor activity, NCI-H358-transplanted models (Example 5); set-up: species or system nude mice; settings: sodium salt of compound 1 0.25 mg/kg orally once a day and/or TNO155 5 mg/kg orally twice a day, 21 days
Experimental: as §1, §2
as §3, with “NCI-H358-transplanted” for “NCI-H1373-transplanted”, “1. TNO155 and the solvent A were administered at 5 mg/kg and 10 ml/kg, respectively, to the single-agent administration group of TNO155.” for “1.”
as §4

[3] = tested on: KRAS mutation-positive human cancer cell line NCI-H441; experiment: In vivo antitumor activity, NCI-H441-transplanted models (Example 5); set-up: species or system nude mice; settings: sodium salt of compound 1 0.125 or 0.25 mg/kg orally once a day and/or TNO155 5 or 10 mg/kg orally twice a day, 13 days
Experimental: as §1, §2
Administration to the NCI-H441-transplanted models was performed as described below. The sodium salt of the compound 1 and the solvent D were administered at 0.125 mg/kg or 0.25 mg/kg and 10 ml/kg, respectively, to the single-agent administration group of the sodium salt of the compound 1. […]
as §4

[4] = tested on: phosphorylation of MEK and ERK and binding between KRAS and GTP within human cancer cells (NCI-H2122, NCI-H1373, NCI-H441, HPAC); experiment: In vitro RAS signal inhibitory activity evaluation (Western blot); settings: for attenuation of inhibition of pMEK and pERK by lapse of time (Western blot, FIGS. 2 and 3): cells recovered after 4, 24 or 72 hours, single-agent or combined treatment; for inhibition of pMEK, pERK, DUSP4 and DUSP6 (Western blot, FIGS. 2 and 3): 3, 10 or 30 nmol/L compound 1, 1000 nmol/L TNO155, 100 nmol/L GDC-1971
Experimental: The human cancer cells used were KRAS mutation-positive human lung cancer cell lines NCI-H2122 (KRAS-G12C mutation), NCI-H1373 (KRAS-G12C mutation), NCI-H441 (KRAS-G12V mutation) and HPAC (KRAS-G12D) (all, ATCC). These cells were inoculated to a three-dimensional culture plate PrimeSurface (Sumitomo Bakelite Co., Ltd.) containing a medium. The plate inoculated with the cells was cultured at 37° C. in a 5% carbon dioxide incubator for 24 hours. […] The plate thus subjected to single-agent treatment or combined treatment was cultured at 37° C. in a 5% carbon dioxide incubator. After a lapse of 4 hours, 24 hours or 72 hours, the cells were recovered. The recovered cells were lysed with Cell Lysis Buffer (Cell Signaling Technology, Inc.) containing protease and phosphatase inhibitors (Thermo Fisher Scientific Inc.) to obtain a protein solution.
RAS-GTP, an activated form of RAS, was recovered from a portion of the obtained protein solution using Active Ras Pull-Down and Detection Kit (Thermo Fisher Scientific Inc.). SDS-PAGE was carried out using the obtained RAS-GTP concentrated solution and the protein solution, and migrated proteins were transferred to a PVDF membrane using Trans-Blot Turbo Transfer System (Bio-Rad Laboratories, Inc.). After blocking, the PVDF membrane was reacted with a primary antibody and a secondary antibody in this order. The chemiluminescence of protein bands was caused with Chemi-lumi One Super (Nacalai Tesque, Inc.). The bands were detected with ChemiDoc Touch Imaging System (Bio-Rad Laboratories, Inc.).
“KRAS-GTP” depicts KRAS bound with GTP. “pMEK” and “pERK” depict phosphorylated MEK and ERK, respectively.

[5] = tested on: KRAS-G12C mutation-positive human cancer cell line MIA PaCa-2; experiment: In vivo antitumor activity, MIA PaCa-2 xenograft mice (Example 3); set-up: species or system nude mice; settings: sodium salt of compound 1 0.25 mg/kg and/or sotorasib 10 mg/kg, orally once a day for 14 days
Experimental: (§8) This evaluation employed xenograft mice in which a KRAS-G12C mutation-positive human cancer cell line MIA PaCa-2 or NCI-H2122 (both, ATCC) was transplanted. The xenograft mice were prepared by subcutaneously transplanting 5×10^6 human cells per mouse to nude mice. After cell transplantation, the mice were grouped (n=8) when a tumor volume reached 200 to 340 mm^3.
The sodium salt of the compound 1 was dissolved in 10% DMSO/10% Cremophor EL/15% HP-β-CD (2-hydroxypropyl-β-cyclodextrin)/15% polyethylene glycol-400/50% injectable distilled water (solvent A) for administration. […] The sodium salt of the compound 1 and the solvent B were administered at 0.25 mg/kg and 20 ml/kg, respectively, to the single-agent administration group of the sodium salt of the compound 1. […] The solvent A and the solvent B were administered at 20 ml/kg and 20 ml/kg, respectively, to a control group. […] After the completion of the administration period, an observation period of 22 days was established.
The tumor volumes of the mice were calculated according to the expression (4) given below.
The body weights of the mice were measured.

[6] = tested on: KRAS-G12C mutation-positive human cancer cell line NCI-H2122; experiment: In vivo antitumor activity, NCI-H2122 xenograft mice (Example 3); set-up: species or system nude mice; settings: sodium salt of compound 1 0.25 or 0.75 mg/kg and/or adagrasib 100 mg/kg, orally once a day for 21 days
Experimental: as §8
The solvent A and the solvent C were administered at 10 ml/kg and 20 ml/kg, respectively, to a control group.
The tumor volumes of the mice were calculated according to the expression (4) given below. […] The ordinates of graphs (a) and (c) of FIG. 17 depict the tumor volumes (mm^3), and the abscissas thereof depict the number of days after cell transplantation.
The body weights of the mice were measured. […] The ordinates of graphs (b) and (d) of FIG. 17 depict the relative body weight change (%), and the abscissas thereof depict the number of days after cell transplantation.

[7] = tested on: KRAS mutation-positive human cancer cell line NCI-H441; experiment: In vivo antitumor activity, NCI-H441-transplanted models (Example 4); set-up: species or system nude mice; settings: sodium salt of compound 1 0.0625 mg/kg orally once a day for 10 days and/or bevacizumab 2.5 mg/kg intraperitoneal twice a week
Experimental: (§9) The cells of each line were subcutaneously transplanted at 5×10^6 per mouse to the mice. The mice were grouped (n=5) when a tumor volume reached 200 to 300 mm^3.
Administration to the NCI-H441-transplanted models was performed as described below. […] The solvent A was administered at 20 ml/kg to a control group.

[8] = tested on: KRAS mutation-positive human cancer cell line OV56; experiment: In vivo antitumor activity, OV56-transplanted models (Example 4); set-up: species or system SCID mice; settings: sodium salt of compound 1 0.25 mg/kg orally once a day for 10 days and/or bevacizumab 2.5 mg/kg intraperitoneal twice a week
Experimental: as §9
Administration to the OV56-transplanted models was performed as described below. […] The solvent A and physiological saline were administered at 20 ml/kg and 10 ml/kg, respectively, to a control group.

[9] = tested on: KRAS mutation-positive mouse colon cancer cell line CT26; experiment: In vivo antitumor activity, CT26-transplanted models (Example 6); set-up: species or system BALB/C mice; settings: sodium salt of compound 1 1 mg/kg orally once a day and/or anti-PD-L1 antibody 10 mg/kg intravenous twice a week, 21 days
Experimental: (§5) Use in combination of the sodium salt of the compound 1 and an anti-PD-L1 antibody was evaluated for its in vivo antitumor activity using BALB/C mice in which a KRAS mutation-positive mouse colon cancer cell line CT26 (Crown Bioscience) was transplanted and C57BL/6J mice in which a KRAS mutation-positive mouse lung cancer tissue slice mLU6054 (Crown Bioscience) was transplanted. The CT26 cells and the mLU6054 tissue slice were subcutaneously transplanted at 5×10^5 and a diameter of […], respectively, per mouse to the mice. The mice were grouped (n=8) when a tumor volume reached approximately 60 to 85 mm^3.
(§6) The CT26- or mLU6054-transplanted models received the single-agent administration or combined administration of the sodium salt of the compound 1 and the anti-PD-L1 antibody. The sodium salt of the compound 1 was dissolved in solvent E for administration. The anti-PD-L 1 antibody was diluted with PBS for administration.
(§7) Administration to the CT26- or mLU6054-transplanted models was performed as described below. The sodium salt of the compound 1 and PBS were administered at 1 mg/kg and 10 ml/kg, respectively, to the single-agent administration group of the sodium salt of the compound 1. […]
as §4

[10] = tested on: KRAS mutation-positive mouse lung cancer tissue slice mLU6054; experiment: In vivo antitumor activity, mLU6054-transplanted models (Example 6); set-up: species or system C57BL/6J mice; settings: sodium salt of compound 1 1 mg/kg orally once a day and/or anti-PD-L1 antibody 10 mg/kg intravenous twice a week, 21 days
Experimental: as §5, §6, §7, §4

Structure (SMILES) | tumor volume compared with the control group (FIG. 19A) [1] | tumor volume compared with the control group (FIG. 19B) [2] | tumor volume compared with the control group (FIG. 19C) [3] | attenuation of inhibition of pMEK and pERK by lapse of time (Western blot, FIGS. 2 and 3) [4] | inhibition of pMEK, pERK, DUSP4 and DUSP6 (Western blot, FIGS. 2 and 3) ([4]; single-agent treatment) | inhibition of pMEK and pERK (Western blot, FIG. 1) ([4]; single-agent treatment, after 4 hours and 24 hours, 300 nmol/L compound 1) | tumor volume compared with the control group (FIG. 17a) [5] | tumor volume compared with the control group (FIG. 17c) [6] | tumor volume compared with the control group (FIG. 18a) [7] | tumor volume compared with the control group (FIG. 18b) [8] | tumor volume compared with the control group (FIG. 20a) [9] | tumor volume compared with the control group (FIG. 20b) [10]
C[C@@H]1OCC2(CCN(c3cnc(Sc4ccnc(N)c4Cl)c(N)n3)CC2)[C@@H]1N [TNO155, (3S,4S)-8-(6-amino-5-((2-amino-3-chloropyridin-4-yl)thio)pyrazin-2-yl)-3-methyl-2-oxa-8-azaspiro[4.5]decan-4-amine, reference compound] | suppressed increase in tumor volume | suppressed increase in tumor volume | suppressed increase in tumor volume | tended to be attenuated as time passed | inhibited pMEK, pERK, DUSP4 and DUSP6 |  |  |  |  |  |  | 
CNS(=O)(=O)Nc1nccc(Cc2cc(C(N)=O)c(Nc3ccc(C4CC4)cc3F)c(F)c2F)c1F [compound 1, 2-(4-cyclopropyl-2-fluoro-anilino)-3,4-difluoro-5-[[3-fluoro-2-(methylsulfamoylamino)-4-pyridyl]methyl]benzamide] |  |  |  | tended to be attenuated as time passed | inhibited pMEK, pERK, DUSP4 and DUSP6 | inhibited pMEK and pERK |  |  |  |  |  | 
CNS(=O)(=O)[N]([Na+])c1nccc(Cc2cc(C(N)=O)c(Nc3ccc(C4CC4)cc3F)c(F)c2F)c1F [sodium salt of the compound 1] | suppressed increase in tumor volume | suppressed increase in tumor volume | suppressed increase in tumor volume |  |  |  | suppressed increase in tumor volume | suppressed increase in tumor volume | suppressed increase in tumor volume | suppressed increase in tumor volume | suppressed increase in tumor volume | suppressed increase in tumor volume
N[C@@H]1c2ccccc2OC12CCN(c1cnc3c(N4CCCc5ncccc54)n[nH]c3n1)CC2 [GDC-1971, (R)-1′-(3-(3,4-dihydro-1,5-naphtyridin-1(2H)-yl)-1H-pyrazolo[3,4-b]pyridin-6-yl)-3H-spiro[benzofuran-2,4′-piperidin]-3-amine] |  |  |  | tended to be attenuated as time passed | inhibited pMEK, pERK, DUSP4 and DUSP6 |  |  |  |  |  |  | 
